Test results taken from patent US9169217B2, “Arylalkyl esters of 4-amino-6-(substituted phenyl)-picolinates and 6-amino-2-(substituted phenyl)-pyrimidinecarboxylates and their use as selective herbicides for crops” (Dow AgroSciences LLC, priority 2011, dated 2015).

Experiments:
[1] = tested on: Echinochloa colonum (L.) LINK (junglerice); experiment: Postemergence foliar-applied herbicidal activity in direct seeded rice (Example 16); type: in vivo; details: for pest or weed control at 8.75 g/ha: Echinochloa colona, post-emergence, 504 h, rice cropping systems, 8.75 g ae/ha, 21 DAA, may represent multiple trials, read-out: Visual Injury (%) ECHCO; for GR50 / GR80 / GR90: ECHCO, probit analysis; for GR50: 50% growth reduction; for GR80: 80% growth reduction; for GR90: 90% growth reduction
Outline: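 Greenhouse plants at 2nd–3rd true leaf stage (10–17 d, ~29/26 °C, 14-h photoperiod) sprayed postemergence with ester forms in acetone–DMSO plus 1.25% crop oil concentrate at 187 L/ha. Visual injury scored 0–100% versus untreated plants after 3 weeks; GR50/GR80 derived by probit analysis.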

[2] = tested on: Leptochloa chinensis (L.) NEES (Chinese sprangletop); experiment: In-water applied herbicidal activity in transplanted paddy rice (Example 17); type: in vivo; details: LEFCH, probit analysis; for GR50: 50% growth reduction; for GR80: 80% growth reduction; for GR90: 90% growth reduction
Outline: (§1)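 Ester forms of test compounds, in acetone diluted with aqueous Agri-dex (final 1.25% v/v crop oil concentrate), were injected into the flood water of paddy pots holding weeds or rice at the 2nd–3rd leaf stage in mud (pH ~7.3–7.8). Visual injury versus untreated plants was scored 0–100% after 3 weeks in greenhouse (~29/26 °C). GR50/GR80 were derived by probit analysis.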

[3] = tested on: Cyperus rotundus L. (purple nutsedge); experiment: as above; type: in vivo; details: rice cropping systems, 35 g ae/ha, 21 DAA, may represent multiple trials
Outline: as §1

| Structure (SMILES) | pest or weed control at 8.75 g/ha [1] | melting point | GR50 [1] | GR80 [1] | GR90 [1] | GR50 [2] | GR80 [2] | GR90 [2] | Visual Injury (%) CYPRO [3] |
| --- | --- | --- | --- | --- | --- | --- | --- | --- | --- |
| COC(=O)c1nc(-c2ccc(C3CC3)cc2)c(F)c(N)c1Cl [Compound B, methyl 4-amino-3-chloro-6-(4-cyclopropylphenyl)-5-fluoropicolinate] | 50% | 116 to 119 °C | – | – | – | – | – | – | – |
| COc1c(Cl)ccc(-c2nc(C(=O)OCc3ccccc3)c(Cl)c(N)c2F)c1F [Compound 1, benzyl 4-amino-3-chloro-6-(4-chloro-2-fluoro-3-methoxyphenyl)-5-fluoropicolinate] | – | – | 2.4 g ae/ha | 7.8 g ae/ha | 14.4 g ae/ha | 50.4 g ae/ha | 78.6 g ae/ha | 99.1 g ae/ha | – |
| Nc1c(F)c(-c2ccc(C3CC3)cc2)nc(C(=O)OCc2ccccc2)c1Cl [Compound 42, benzyl 4-amino-3-chloro-6-(4-cyclopropylphenyl)-5-fluoropicolinate] | 85% | – | – | – | – | – | – | – | – |
| COC(=O)c1nc(-c2ccc(Cl)c(OC)c2F)c(F)c(N)c1Cl [E, methyl 4-amino-3-chloro-6-(4-chloro-2-fluoro-3-methoxyphenyl)-5-fluoropicolinate, reference compound] | – | – | <4.38 g ae/ha | 14.6 g ae/ha | 55.6 g ae/ha | 59.9 g ae/ha | 99.4 g ae/ha | 130.0 g ae/ha | – |
| COC(=O)c1nc(-c2ccc(Cl)c(OC)c2F)cc(N)c1Cl [Compound G, methyl 4-amino-3-chloro-6-(4-chloro-2-fluoro-3-methoxyphenyl)picolinate, reference compound] | – | – | – | – | – | – | – | – | 47% |
| COc1c(Cl)ccc(-c2cc(N)c(Cl)c(C(=O)OCc3ccccc3)n2)c1F [Compound 39] | – | 90 to 91.5 °C | – | – | – | – | – | – | 80% |
